Measurements from patent publication US20180185520A1, “COLLAGEN IMAGING COMPOSTIONS” (Collagen Medical, LLC, priority 2015, published 2018).

Columns and labels:
[1] = Pharmacokinetics (rat), plasma gadolinium by ICP-MS; assay type: in vivo, Sprague Dawley rats; settings: 1.3 umol/kg iv bolus in 80 mM sucrose, pH 7, plasma 2-90 minutes
Method: Compound ID No. 1 was formulated at pH 7 in 80 mM sucrose and administered to Sprague Dawley rats (n=2) at dose of 1.3 umol/kg using a bolus IV injection. Plasma was sampled at 2, 5, 15, 30, and 90 minutes post-injection and analyzed for gadolinium content using ICP-MS (FIG. 15).

liver fibrosis = assay: Detection of liver fibrosis by MRI, rat bile duct ligation model; assay type: in vivo, male CD rats; settings: 10 μmol/kg i.v., 30 minutes, 1.5 tesla
From the text: Liver fibrosis was induced in male CD rats (n=8) by ligation of the common bile duct (Charles River Labs, Wilmington, Mass.). Control animals (n=12) underwent a control procedure. Rats were imaged 19 days following ligation. Rats were imaged on a 1.5-tesla clinical MRI scanner (Siemens Healthcare, Malvern, Pa.) using a home-built, transmit-receive solenoid coil. Animals were anesthetized with 1-2% isoflurane and respiration rate was monitored with a small animal physiological monitoring system (SA Instruments, Inc., Stony Brook, N.Y.). Respiratory-gated, 3D Inversion Recovery (IR) Fast Low Angle Shot (FLASH) images were acquired prior to and 30 minutes following intravenous administration of 10 μmol/kg COMPOUND ID NO. 1. A non-selective inversion pulse was used and images were acquired with inversion recovery times of 50, 100, 200, 250, 300, 400 and 1000 ms. Image acquisition parameters consisted of an echo time of TE=2.44 ms, field-of-view FOV=120×93 mm, matrix=192×150 (0.625 mm in-plane resolution), slice thickness=0.6 mm, and 36 image slices. […] Following imaging, animals were sacrificed and liver tissue was subjected to pathologic scoring of fibrosis and analyzed for hydroxyproline content. […]
Liver fibrosis was detected by MRI by measuring the change in liver R1 after injection of COMPOUND ID NO. […]

[2] = molecular target: T1, rat collagen (acid soluble, type I, rat tail) (Rattus norvegicus, UniProt P02454+P02466); assay: Collagen binding assay, dried rat collagen in microtiter plate; settings: 37° C., pH 7.4
T1 construct: purchased Millipore Inc 08-115; host or cells: rat tail
Method: 10 ml of a 3.79 mg/mL solution of rat collagen (acid soluble, type I, rat tail, Millipore Inc, cat#08-115) is dialyzed against 10 mM Phosphate (NaH2PO4), pH 4.2 at 4° C. with three changes of the dialysis buffer.
Ice-cold 1×PBS pH 10.8 is added to the collagen solution for a final collagen concentration of 10 μM, pH 7.4. Collagen solutions are gelled and dried down in the wells of a 96 well microtiter plate (Corning Polystyrene Flat Bottom, cat#3641). 70 μl of 10 μM collagen is aliquoted into each well in every other lane in the plate (48 wells) and the plate is incubated at 37° C. for 18 hours to form a gel and evaporate to dryness. […] The final well content of gelled collagen is measured by determination of hydroxyproline and is around 180 μg/ml.
a serial dilution of 0.2 μM-30 μM of the peptide chelate is prepared in PBS, pH 7.4 ([…], of solution for each concentration). […] The concentration of free, unbound compound in the sample supernatants and the concentration of compound in the reserved (total) sample are determined by ICP-MS (Agilent 7500, gadolinium concentration). The concentration of compound bound to collagen is determined as [bound]=[total]−[unbound].
The binding of compounds to human, rat and dog collagen (5 μM) was measured over the concentration range 0.2-5 μM of Comp ID Nos.: 1-4. […]

Kd [2]: 21.1 µM
SMILES: CC(C)C[C@H](NC(=O)[C@@H]1CSSC[C@H](NC(=O)[C@H](Cc2c[nH]cn2)NC(=O)[C@H](Cc2c[nH]c3ccccc23)NC(=O)[C@H](CCCCNC(=O)CC[C@H](C(=O)O)N2CCN(CC(=O)O)CCN(CC(=O)O)CCN(CC(=O)O)CC2)NC(=O)CNC(=O)CC[C@H](C(=O)O)N2CCN(CC(=O)O)CCN(CC(=O)O)CCN(CC(=O)O)CC2)C(=O)N[C@@H]([C@@H](C)O)C(=O)N[C@@H]([C@@H](C)O)C(=O)N[C@@H](CCCCNC(=O)CC[C@H](C(=O)O)N2CCN(CC(=O)O)CCN(CC(=O)O)CCN(CC(=O)O)CC2)C(=O)N[C@@H](Cc2ccccc2)C(=O)N2CCC[C@H]2C(=O)N[C@@H](Cc2c[nH]cn2)C(=O)N[C@@H](Cc2c[nH]cn2)C(=O)N[C@@H](Cc2ccc(O)cc2)C(=O)N1)C(=O)N[C@@H](Cc1ccc(O)cc1)C(=O)N[C@@H](Cc1ccc(-c2ccccc2)cc1)C(N)=O [Compound ID No. 1]
pharmacokinetic profile [1]: rapid initial blood clearance
ΔR1 (change in liver R1 after injection) (liver fibrosis; BDL animals, 19 days after ligation): 0.49 ± 0.22 s⁻¹
ΔR1 (change in liver R1 after injection) (liver fibrosis; sham animals): 0.15 ± 0.14 s⁻¹
